Measured values published in patent US6878548B2, “Composition for use in electroporation” (Pola Chemical Industries Inc., priority 2001, dated 2005).
Where a name gives a salt, the structure may show the parent alone. Read-outs that look alike come from different tables or passages of the source.

How the values were obtained:
[1] = percutaneous permeability test using a Franz cell after electroporation, abdominal skin
Procedure: Calcein sodium salt was used as a model labeled drug at a concentration of 1 mM. The ingredients were stirred and solubilized to obtain the compositions for electroporation (solutions) of the present invention. The percutaneous absorption promotion actions of these compositions for electroporation were measured by percutaneous permeability test using a Franz cell. That is, a skin sample was collected from the abdomen of a hairless rat, and subcutaneous fat was removed from the sample. The skin sample was loaded in the Franz cell as a partition wall with its horny cell layer facing towards the donor side. The receiver side was filled with an isotonic phosphate-buffered saline (PBS). The donor side was filled with 3 mL of the aforementioned composition for electroporation of the present invention. The receiver side was stirred at 1200 rpm by using a star-head type stirrer. After the electroporation, 0.3 mL of the solution in the receiver side was serially collected in a time course and added with the same amount of isotonic phosphate-buffered saline (PBS) to examine the percutaneous permeability. […] The amount of calcein sodium salt was measured by a fluorometer. Further, as for the conditions of electroporation, ECM-830 produced by BTX was used, 10 pulses of 10 ms at 300 V was applied at intervals of 1 minute immediately after the drug administration, and then the power was turned off.
The same examination as in Example 1 was conducted by using various metal chlorides.
The same examination as in Example 1 was conducted by using trivalent metal ion chlorides. As for the electroporation conditions, 10 pulses of 10 ms at 300 V were applied at intervals of 1 second immediately after the drug administration. As the trivalent metal ion chlorides, iron chloride and aluminum chloride were used.
The same examination as in Example 1 was conducted by using FITC-dextran as a model labeled drug. As for the electroporation conditions, 10 pulses of 10 ms at 300 V were applied at intervals of 1 second immediately after the drug administration. As the FITC-dextran, FD4 (molecular weight: 4300), FD10 (molecular weight: 9600) and FD40 (molecular weight: 35600) were used.

[2] = percutaneous permeability test using a Franz cell after electroporation, dorsal skin; assay type: in vitro ADME, hairless rat
Excerpt: However, dorsal skin of a hairless rat was used as the skin sample. […] As the model labeled drugs, sodium dexamethasone phosphate (DEX.Na), ritodrine hydrochloride (RIT), dimemorfan phosphate (DIM), caffeine (CAF), azelastine hydrochloride (AZR), tipepidine hibenzate (TIP), benzoic acid (BA), phenytoin (PEN) and testosterone (TES) were used.

## [Cl][Al]([Cl])[Cl] [aluminum chloride]
[1]
  percutaneous absorption (calcein), trivalent metal ion chlorides vs calcium ions: neither of the trivalent metal ions significantly promoted percutaneous absorption

## CN1CCCC(n2nc(Cc3ccc(Cl)cc3)c3ccccc3c2=O)CC1 (stereo not drawn) [azelastine hydrochloride]
[2]
  percutaneous absorption of the model labeled drug on addition of calcium ions: significantly promoted percutaneous absorption

## [Ba+2].[Cl-].[Cl-] [barium chloride]
[1]; Example 9, various divalent metal chlorides added, FIG. 7
  absorption of calcein during electroporation: promoted the absorption of calcein

## [Cl-].[K+] [potassium chloride]
[1]; Example 8, sample of Example 4 with metal chloride changed, all 150 mM, buprenorphine hydrochloride 0.02% by weight, FIGS. 5 and 6
  percutaneous absorption promotion action (buprenorphine hydrochloride): promoted percutaneous absorption

## CN1CCCC(=C(c2cccs2)c2cccs2)C1.O=C(O)c1ccccc1C(=O)c1ccc(O)cc1 [tipepidine hibenzate]
[2]; Example 11, dorsal skin, addition of CaCl2, 10 pulses of 10 ms at 300 V at intervals of 1 second, FIG. 9
  percutaneous absorption of the model labeled drug on addition of calcium ions: significantly promoted percutaneous absorption

## iron chloride
[1]
  percutaneous absorption (calcein), trivalent metal ion chlorides vs calcium ions: neither of the trivalent metal ions significantly promoted percutaneous absorption
